Test results published in patent US9512156B2, “Carbon monoxide releasing rhenium compounds for medical use” (UNIVERSITY OF ZURICH, priority 2010, dated 2016).

Tests used:
[1] = system: neonatal rat ventricular cardiomyocytes (NRCs); conditions: Zobi et al., Inorg. Chem. 2010, 49, 7313-7322; cited from earlier work
[2] = Solubility in water and organic solvents; format: physicochemical
[3] = system: intracellular reduced glutathione (GSH) in NRCs; experiment: Intracellular reduced glutathione (GSH) in NRCs after ischemia and 10 min of reperfusion; format: cell-based, rat; conditions: 30 μM, 10 min after the onset of reperfusion
Description: FIG. 9. Regulation of oxygen availability and the intracellular reduced glutathione content by Re-CORMs. A: Reduction in oxygen content in the incubation medium within 10 min after addition of 60 μM of 2, 6 and B12-CORM-2; N=6-8. Given are means±SEM. B: Intracellular reduced glutathione (GSH) content in NRCs exposed to 16 h of ischemia and 10 min of reperfusion in the presence or absence of CO-RMs. N=4 Data are means±SEM.
Oxidative stress triggered by acute hyperoxygenation is a hallmark of reperfusion injury. Based on the findings presented in FIG. 9A selected CORMs may be viewed as oxygen scavengers which, when applied early on during reperfusion, may reduce the cellular oxidative damage. To test this hypothesis intracellular reduced glutathione (GSH) levels were determined in cells 10 min after the “onset of reperfusion” in the presence or absence of 30 μM 2, 6 and B12-CORM-2. […] (FIG. 9B). This acute antioxidative effect of 2 most likely reflects the ability of the intermediates formed upon CO release to react with oxygen forming ReO4^−.

[4] = Deoxygenation of cell-free incubation medium; conditions: within minutes after administration, dose-dependent (FIG. 9A: 60 μM, 10 min)
Description: Therefore, the effect of the three selected CO-RMs on oxygen consumption by NRCs was investigated.

[5] = system: horse skeletal myoglobin (Mb); experiment: Detection of CO release using the myoglobin assay (conversion of Mb to MbCO); format: biochemical; conditions: pH 7.4, 25° C.
Description: Changes in the Mb spectra were recorded over time at 25° C. The methanol or DMSO content of the solution never exceeded 0.5%. […] The MbCO concentration was plotted over time and directly related to the equivalents of CO released from the compounds. The half-life of CO release from the Re compounds at different pH's was then estimated from the graphs. Control experiments were run under identical conditions but without addition of the metal complexes. All manipulations were performed under a pure N2 atmosphere in a wet box.
The final methanol or DMSO content of the buffered aqueous solution never exceeded 0.5%. The conversion of Mb to carbon monoxide myoglobin (MbCO) was followed over time by measuring the changes in the absorption spectra of the Q band region of this protein at pH 7.4, 6.3 and 5.8 after addition of the Re^II complex.
The amount of MbCO formed over time after addition of the Re complex to the Mb solution was calculated according to the known extinction coefficients. The MbCO concentration was directly related to the equivalents of CO released from the compounds and these were plotted as a function of time.

[6] = system: neonatal rat cardiomyocyte (NRC); experiment: Cytotoxicity towards neonatal rat cardiomyocytes under normal conditions; format: cell-based; conditions: normal physiological conditions, up to a tested concentration of 120 μM
Description: B12-CORM-2 and 4 (Scheme 3) were tested for their cytotoxic and their cytoprotective effects using the neonatal rat cardiomyocyte (NRC) cell-based model of ischemia-reperfusion injury (I/R) as previously described (Zobi et al., Inorg. Chem. 2010, 49, 7313-7322). The membrane-impermeable ReII-CORMs studied so far were non-toxic in the micromolar concentration range. To test for the possible uptake of B12-CO-RMs by cells incubation of NRCs with 30 μM of B12-CORM-2 and 4 was performed and cell culture medium samples were collected over 180 min of incubation. […] The fraction of dead cells tended to decrease in the presence of CORMs, but, due to the high variability, the differences were not statistically significant (2.7±1.7% in control vs 1.1±0.3 and 1.0±0.2 in the presence of B12-CORM-2 and B12-CORM-4 respectively).

[7] = Stability under aerobic conditions (solid, solution); format: physicochemical

| Compound | cytoprotective effects against I/R injury [1] | cytotoxicity towards NRCs [6] | stability as solids under aerobic conditions [7] | also measured |
| --- | --- | --- | --- | --- |
| CC[N+](CC)(CC)CC.CC[N+](CC)(CC)CC.[Br][Re-2]([Br])([Br])[Br].[C-]#[O+].[C-]#[O+] [Compound 2, [Et4N]2[Re^IIBr4(CO)2]] | substantial cytoprotective effects | no cytotoxicity |  | solubility in water [2]: well soluble in water; intracellular reduced glutathione (GSH) levels [3]: increase; deoxygenation of the cell-free medium [4]: resulted in deoxygenation; time to saturation of Mb with CO liberated from the compound [5]: ≤ 30 min |
| Cc1ccncc1.Cc1ccncc1.[Br][Re][Br].[C-]#[O+].[C-]#[O+] [Compound 5, [ReBr2(CO)2(4-pic)2]] |  |  | indefinitely stable |  |
| Cn1ccnc1.Cn1ccnc1.[Br][Re][Br].[C-]#[O+].[C-]#[O+] [Compound 3, [ReBr2(CO)2(MeIm)2]] |  |  | slowly decomposed over time |  |
| [Br][Re]([Br])([n+]1cc[nH]c1)[n+]1cc[nH]c1.[C-]#[O+].[C-]#[O+] [Compound 6, cis-trans-[Re^II(CO)2Br2(Im)2]] | substantial cytoprotective effects | no cytotoxicity |  |  |
| [Br][Re][Br].[C-]#[O+].[C-]#[O+].c1ccc2[nH]cnc2c1.c1ccc2[nH]cnc2c1 [Compound 4, [ReBr2(CO)2(BzIm)2]] |  |  | indefinitely stable |  |
